Several values for one entry are separate records, joined by “and”; a condition that tells them apart may be missing. Identical values can stand only once.
System: serum levels of 58 analytes
Test: Serum biomarker analysis, quantitative immunoassay multi-analyte profiling (Rules-Based Medicine RodentMAP v2.9), AA#80
Type: in vivo, mouse
Description: In AA#80, serum samples were collected on Day 27, Day 34, Day 41 and Day 55 via the submandibular vein. Approximately 200 μL of blood per mouse was collected in Microtainer® serum separator tubes. Serum was removed following centrifugation and stored at <−65° C. until analysis.
Selected serum samples were sent to Rules-Based Medicine (Austin, Tex.) for quantitative immunoassay multi-analyte profiling of serum samples, with the goal of identifying biomarkers that could be used to monitor disease progression and response to B7-H4-Ig treatment. Day 27, Day 34, and Day 41 sera from the three representative mice in the B7-H4-Ig group (tag #3332, 3334, and 3338) and three representative mice in the Synagis® group (tag #3324, 3329, and 3330) were analyzed for levels of 58 analytes using the RodentMAP v2.9 Testing Service.
Data from the Rules-Based Medicine analysis was analyzed using Microsoft Excel and GraphPad Prism software. T-tests were performed to compare the levels of each analyte in the B7-H4-Ig versus Synagis® treated samples. No correction was made for multiple comparisons. Additionally, correlation coefficients were calculated for each analyte versus disease score.

Synagis®: humanized monoclonal IgG antibody against the F protein of Respiratory Syncytial Virus; used as a human IgG1 isotype control [reference compound]
serum samples with undetectable GST-α levels (all samples (Day 27, 34, 41)): 7/9 | serum samples with TNF-α levels above the limit of detection (all samples (Day 27, 34, 41) (FIG. 16)): 5/9 | M-CSF (Macrophage-Colony Stimulating Factor) (serum, Day 34, LDD 0.01795, listed as Human LgG1 Control): 6.46 ng/mL and 6.3 ng/mL and 6.09 ng/mL | MIP-1gamma (Macrophage Inflammatory Protein-1gamma) (serum, Day 34, LDD 0.0736, listed as Human LgG1 Control): 42.2 ng/mL and 41 ng/mL and 40.9 ng/mL | TEMP-1 (Tissue Inhibitor of Metalicproteinase Type-1) (serum, Day 34, LDD 0.18, listed as Human LgG1 Control): 1.7 ng/mL and 1.88 ng/mL and 1.31 ng/mL | IL-5 (Interleukin-5) (serum, Day 34, LDD 0.194, listed as Human LgG1 Control): 0.333 ng/mL and 0.474 ng/mL | MIP-1alpha (Macrophage Inflammatory Protein-1alpha) (serum, Day 34, LDD 0.2255, listed as Human LgG1 Control): 3.13 ng/mL and 2.88 ng/mL and 2.93 ng/mL | MIP-3beta (Macrophage Inflammatory Protein-3beta) (serum, Day 34, LDD 0.465, listed as Human LgG1 Control): 2.63 ng/mL and 2.52 ng/mL and 2.67 ng/mL | Tissue Factor (serum, Day 34, LDD 0.5175, listed as Human LgG1 Control): 10.8 ng/mL and 10 ng/mL and 12.5 ng/mL | MPO (Myeloperoxidase) (serum, Day 34, LDD 0.95, listed as Human LgG1 Control): 253 ng/mL and 254 ng/mL | SGOT (Serum Glutamic-Oxaloacetic Transaminase) (serum, Day 34, LDD 1.86, listed as Human LgG1 Control): 75 µg/mL and 140 µg/mL and 81.9 µg/mL | TPO (Thromboproletin) (serum, Day 34, LDD 2.66, listed as Human LgG1 Control): 36.1 ng/mL and 34.2 ng/mL and 39.8 ng/mL | SAP (Setrum Amtyloid P) (serum, Day 34, LDD 5.4, listed as Human LgG1 Control): 38.4 µg/mL and 48.6 µg/mL and 38.3 µg/mL | MIP-2 (Macrophage Inflammatory Protein-2) (serum, Day 34, LDD 7.174, listed as Human LgG1 Control): 27.2 pg/mL and 32.3 pg/mL and 33.6 pg/mL | MMP-9 (Matrix Metalloproteinase-9) (serum, Day 34, LDD 10, listed as Human LgG1 Control): 207 ng/mL and 259 ng/mL and 283 ng/mL | MCP-1 (Monocyte Chemoattractant Protein-1) (serum, Day 34, LDD 16.924, listed as Human LgG1 Control): 99.8 pg/mL and 78.3 pg/mL and 117 pg/mL | VCAM-1 (Vescular Cell Adhesion Molecule-1) (serum, Day 34, LDD 19, listed as Human LgG1 Control): 2290 ng/mL and 2120 ng/mL and 2450 ng/mL | MDC (Macrophage-Derived Chemokine) (serum, Day 34, LDD 21.85, listed as Human LgG1 Control): 1270 pg/mL and 1320 pg/mL and 1130 pg/mL | Myoglobin (serum, Day 34, LDD 24, listed as Human LgG1 Control): 10 ng/mL and 9.69 ng/mL and 12.7 ng/mL | MCP-3 (Monocyte Chemoattractant Protein-3) (serum, Day 34, LDD 31.36, listed as Human LgG1 Control): 188 pg/mL and 180 pg/mL and 193 pg/mL | VEGF (Vescular Endotheial Cell Growth Factor) (serum, Day 34, LDD 38.2, listed as Human LgG1 Control): 92.6 pg/mL and 128 pg/mL and 114 pg/mL | IP-10 (Inducible Protein-10) (serum, Day 34, LDD 40.28, listed as Human LgG1 Control): 68.1 pg/mL and 52 pg/mL and 84.3 pg/mL | LIF (Leukemia Infabitory Factor) (serum, Day 34, LDD 43.6, listed as Human LgG1 Control): 1620 pg/mL and 1430 pg/mL | MCP-5 (Monocyte Chemoattractant Protein-5) (serum, Day 34, LDD 46.38, listed as Human LgG1 Control): 37.5 pg/mL and 46.2 pg/mL and 41 pg/mL | SCF (Stem Cell Factor) (serum, Day 34, LDD 75.17, listed as Human LgG1 Control): 214 pg/mL and 182 pg/mL | Lymphotactin (serum, Day 34, LDD 85.48, listed as Human LgG1 Control): 219 pg/mL and 151 pg/mL and 205 pg/mL | VWF (Von Willebrand Factor) (serum, Day 34, LDD 98.6, listed as Human LgG1 Control): 107 ng/mL and 92.4 ng/mL and 139 ng/mL | M-CSF (Macrophage-Colony Stimulating Factor) (serum, Day 41, LDD 0.01795, listed as Human LgG1 Control): 6.38 ng/mL and 5.22 ng/mL and 6.37 ng/mL | MIP-1gamma (Macrophage Inflammatory Protein-1gamma) (serum, Day 41, LDD 0.0736, listed as Human LgG1 Control): 45.4 ng/mL and 44.8 ng/mL | TEMP-1 (Tissue Inhibitor of Metalicproteinase Type-1) (serum, Day 41, LDD 0.18, listed as Human LgG1 Control): 3.54 ng/mL and 3.21 ng/mL and 4.33 ng/mL | IL-5 (Interleukin-5) (serum, Day 41, LDD 0.194, listed as Human LgG1 Control): 0.616 ng/mL and 0.368 ng/mL and 0.333 ng/mL | MIP-1alpha (Macrophage Inflammatory Protein-1alpha) (serum, Day 41, LDD 0.2255, listed as Human LgG1 Control): 3.03 ng/mL and 3.13 ng/mL and 3.32 ng/mL | MIP-3beta (Macrophage Inflammatory Protein-3beta) (serum, Day 41, LDD 0.465, listed as Human LgG1 Control): 3.27 ng/mL and 2.73 ng/mL and 2.35 ng/mL | Tissue Factor (serum, Day 41, LDD 0.5175, listed as Human LgG1 Control): 10.8 ng/mL and 9.17 ng/mL and 11.7 ng/mL | MPO (Myeloperoxidase) (serum, Day 41, LDD 0.95, listed as Human LgG1 Control): 259 ng/mL and 263 ng/mL and 240 ng/mL | SGOT (Serum Glutamic-Oxaloacetic Transaminase) (serum, Day 41, LDD 1.86, listed as Human LgG1 Control): 84 µg/mL and 93.9 µg/mL and 78.4 µg/mL | TPO (Thromboproletin) (serum, Day 41, LDD 2.66, listed as Human LgG1 Control): 38 ng/mL and 39.8 ng/mL and 32.4 ng/mL | SAP (Setrum Amtyloid P) (serum, Day 41, LDD 5.4, listed as Human LgG1 Control): 49.2 µg/mL and 46.2 µg/mL and 48.8 µg/mL | MIP-2 (Macrophage Inflammatory Protein-2) (serum, Day 41, LDD 7.174, listed as Human LgG1 Control): 33.6 pg/mL and 50.3 pg/mL | IL-6 (Interleukin-6) (serum, Day 41, LDD 13.852, listed as Human LgG1 Control): 74.2 pg/mL and 67.5 pg/mL and 93.7 pg/mL | MCP-1 (Monocyte Chemoattractant Protein-1) (serum, Day 41, LDD 16.924, listed as Human LgG1 Control): 90.2 pg/mL and 129 pg/mL and 105 pg/mL | VCAM-1 (Vescular Cell Adhesion Molecule-1) (serum, Day 41, LDD 19, listed as Human LgG1 Control): 2130 ng/mL and 1890 ng/mL and 1900 ng/mL
